Source: patent US20260108480A1, “METHODS FOR INDUCING PROLIFERATION OF STEM CELLS” (UNIVERSITY OF PITTSBURGH-OF THE COMMONWEALTH SYSTEM OF …, priority 2022, published 2026)
“Also recorded” adds a separate entry of the source.

Columns and labels:
[1] = test system: primary PRX1 expressing SSCs isolated from the calvarial sutures of PRX1-creER-EGFP mice; assay: MTT proliferation assay of primary PRX1 expressing cells isolated from calvarial sutures; format: cell-based, mouse; conditions: for ability to induce proliferation of primary PRX1 expressing SSCs (screen of 5 WNT inhibitors): most effective concentrations of previous studies, FIGS. 22A-22B
Source text: (§1) FIGS. 22A-22H. […] (22A-22B) MTT proliferation assays of primary PRX1 expressing cells isolated from the calvarial sutures of PRX1-creER-EGFP+/+ mice. […] (22C) MTT proliferation assays of immortalized PRX1 expressing cells isolated from the calvarial sutures of PRX1-creER-EGFP+/+ mice. […] (22D-22F) Quantitative RT-PCR of osteoblast differentiation genes of immortalized PRX1 expressing cells isolated from the calvarial sutures of PRX1-creER-EGFP+/+ mice. […] (22G-22H) FAC-sorting analysis of tissue-cultured sutures isolated from of PRX1-creER-EGFP+/+ mice. Suture were explanted and cultured ex vivo.
(§2) WNT inhibitor candidates were identified by looking into cancer studies, as thousands of small molecules have been screened for their potential to inhibit WNT signaling in WNT-activated cancer cells (30). Several molecules have shown inhibition of canonical WNT activity in vitro but only few have been tested in vivo, in mice. Among those tested in vivo, 5 were selected because of their proven efficacy and safety: G007-LK (31), Pyrvinium (25,26), Quercetin (32,33), XAV939 (27), and Niclosamide (34). Actually, Niclosamide and Pyrvinium are anti-helminthic FDA-approved drugs (35,36) and Quercetin is a flavonol found in many fruits and vegetables that is used as an ingredient in supplements, beverages, or foods (33). […] Previous studies indicate that Niclosamide, besides inhibiting the WNT pathway, presents with various additional effects such as uncoupling oxidative phosphorylation and disrupting several different signaling pathways, including the NOTCH, mTORCT, NFkB, and STAT3 pathways (38-44).

[2] = test system: immortalized PRX1 expressing cells isolated from the calvarial sutures of PRX1-creER-EGFP+/+ mice; assay: MTT proliferation assay of immortalized PRX1 expressing cells; format: cell-based, mouse; conditions: after 48 hours (FIG. 22C)
Source text: as §1
WNT inhibitor candidates were identified by looking into cancer studies, as thousands of small molecules have been screened for their potential to inhibit WNT signaling in WNT-activated cancer cells (30). Several molecules have shown inhibition of canonical WNT activity in vitro but only few have been tested in vivo, in mice. Among those tested in vivo, 5 were selected because of their proven efficacy and safety: G007-LK (31), Pyrvinium (25,26), Quercetin (32,33), XAV939 (27), and Niclosamide (34). Actually, Niclosamide and Pyrvinium are anti-helminthic FDA-approved drugs (35,36) and Quercetin is a flavonol found in many fruits and vegetables that is used as an ingredient in supplements, beverages, or foods (33). […]

[3] = test system: osteoblast differentiation genes (RUNX2, SP7, Osteocalcin) in immortalized PRX1 expressing cells; assay: Quantitative RT-PCR of osteoblast differentiation genes in immortalized PRX1 expressing cells; format: cell-based, mouse
Source text: as §1, §2

[4] = test system: GFP+ (PRX1 expressing) and GFP- cells of explanted calvarial sutures of PRX1-creER-EGFP+/+ mice; assay: FAC-sorting analysis of tissue-cultured explanted sutures (ex vivo); format: cell-based, mouse
Source text: as §1
However, no increase of GFP-cells (22H) is detected. All above studies (22A-22E) were repeated 2 or 3 times, with consistent results.
WNT inhibitor candidates were identified by looking into cancer studies, as thousands of small molecules have been screened for their potential to inhibit WNT signaling in WNT-activated cancer cells (30). Several molecules have shown inhibition of canonical WNT activity in vitro but only few have been tested in vivo, in mice. Among those tested in vivo, 5 were selected because of their proven efficacy and safety: G007-LK (31), Pyrvinium (25,26), Quercetin (32,33), XAV939 (27), and Niclosamide (34). […]

PRX1 expressing SSCs = assay: In vivo flow cytometry quantification of PRX1 expressing SSCs after IP treatment; parameters: species or system mouse; conditions: 8-week old mice, 20 mg/Kg IP, 5 days/week
Procedure: (§3) FIGS. 23A-23D. […] (23A-23C) Flow cytometry was utilized to quantify the number of PRX1 expressing SSCs after treatment with Niclosamide (20 mg/kg of body weight, IP, 5 days/week, for 3 consecutive weeks) or with vehicle (control) in calvarial sutures (23A), in the periosteum of long bones (23B), and in the periodontal ligament of posterior molar teeth (23C). 4 mice/treatment (2 males and 2 females). (23D) Micro-computed tomography was utilized to measure bone mass (BV/TV) in the femurs of male and female mice after treatment with Niclosamide (20 mg/kg of body weight, IP, 5 days/week for 3 consecutive weeks) or with vehicle (control) (n=2). […] To do so, skeletally mature 8-week old mice were treated with intraperitoneal (IP) injections of Niclosamide (20 mg/Kg of body weight) or vehicle (control) 5 days/week, for 3 weeks (FIGS. 23A-23D).

[5] = Micro-computed tomography of femur bone mass (BV/TV) after IP treatment; format: in vivo, mouse; conditions: male and female mice, 20 mg/Kg IP, 5 days/week, 3 weeks (FIG. 23D)
Procedure: as §3

[6] = test system: critical size calvarial bone defect; assay: Local delivery in carboxymethylcellulose gel into critical size calvarial bone defect, μCT; format: in vivo, mouse; conditions: 2 mm defect, 8 week old C57Bl/6 female mice, 10 μL 12% carboxymethylcellulose gel containing 100 μg niclosamide, 4 weeks after surgery, n=3
Procedure: Immediately after creation of the defect, 10 μL of a 12% carboxymethylcellulose gel (CONTROL) (24A) or 10 μL of a 12% carboxymethylcellulose gel containing 100 μg of niclosamide (TEST) (24B) were implanted within the bone defect. […] Student's t-test was used for statistical evaluation (n=3, ** indicates p<0.01). […] Immediately after creation of the defect, 10 μL of a 12% carboxymethylcellulose gel (CONTROL) or 10 μL of a 12% carboxymethylcellulose gel containing 100 g of niclosamide (TEST) were implanted within the bone defect (FIGS. 24A-24B). Bone regeneration was assessed by means of μCT, 4 weeks after surgery (FIG. 25). Student's t-test was used for statistical evaluation (n=3, ** indicates p<0.01).

[7] = test system: periodontal ligament stem cells expressing Prx1 from mouse incisors; assay: Flow cytometry quantification of Prx1 (GFP) expressing periodontal ligament cells in vitro; format: cell-based; conditions: 48 hours
Source text: To perform these studies, transgenic mice was utilized expressing green fluorescent protein (GFP) under the Prx1 promoter. Thus, using these transgenic mice, quantification of GFP expressing cells by means of flow cytometry can be utilized to quantify Prx1 expressing cells.

[8] = test system: critical size calvarial bone defect; assay: Local delivery absorbed into a collagen sponge into critical size calvarial bone defect, μCT; format: in vivo, mouse; conditions: collagen sponge carrying 5 μg or 50 μg
Procedure: To test whether Niclosamide can induce bone regeneration when delivered by means of a collagen sponge instead of a methylcellulose gel, a critical size calvarial bone defect was created (2 mm in diameter) in the right parietal bone of skeletally mature C57Bl/6 female mice (8 week old mice). Immediately after creation of the defect, 5 μL of a 1 pg/pl solution of Niclosamide (dissolved in DMSO) or 5 μl of a 10 μg/μl solution of Niclosamide (dissolved in DMSO) were absorbed into a 1 mm×1 mm×1 mm collagen sponge. Then, the sponge carrying either 5 μg or 50 μg of Niclosamide was implanted into the calvarial bone defects (n=3). Bone defects of the control groups received collagen sponges absorbed with equal volumes (5 μl) of DMSO only Bone regeneration was assessed by means of μCT, 8 weeks after surgery (FIGS. 27A-27C) 3D rendering, (FIG. 27D) quantitative assessment of the regenerated Bone Volume (BV) within the Total Volume (TV) of the calvarial bone defects).

| SMILES | proliferation (MTT) of primary PRX1 expressing cells ([1]; after 24 hours (FIG. 22A)) | proliferation (MTT) of primary PRX1 expressing cells ([1]; after 48 hours (FIG. 22B)) | effect on proliferation compared with the other screened molecules ([1]; comparison with Pyrvinium and Quercetin) | ability to induce proliferation of primary PRX1 expressing SSCs (screen of 5 WNT inhibitors) [1] | proliferation (MTT) of immortalized PRX1 expressing cells [2] | osteoblastic differentiation of PRX1 expressing SSCs (qRT-PCR) ([3]; FIGS. 22D-22F) | expression of RUNX2 (qRT-PCR) ([3]; immortalized PRX1 expressing cells, after 48 hours (FIG. 22D)) | expression of SP7 (qRT-PCR) ([3]; immortalized PRX1 expressing cells, after 48 hours (FIG. 22E)) | expression of Osteocalcin (OCN) (qRT-PCR) ([3]; immortalized PRX1 expressing cells, after 48 hours (FIG. 22F)) | GFP+ cells (PRX1 expressing cells) in explanted sutures ([4]; 2 weeks of incubation (FIG. 22G)) | GFP- cells (other cells of the sutures) in explanted sutures ([4]; 2 weeks of incubation (FIG. 22H)) | proliferation of PRX1 expressing SSCs in the calvarial sutures (PRX1 expressing SSCs; 3 weeks (FIG. 23A)) | proliferation of PRX1 expressing SSCs in the periosteum of long bones (PRX1 expressing SSCs; 3 weeks (FIG. 23B)) | proliferation of PRX1 expressing SSCs in the periodontal ligament of the mouse molars (PRX1 expressing SSCs; 3 weeks (FIG. 23C)) | bone mass (BV/TV) of femurs [5] | bone regeneration by μCT [6] | number of Prx1 expressing (GFP) cells ([7]; 0.2 μM and 2 μM, more significant increases with higher doses) | increase of number of Prx1 expressing (GFP) cells ([7]; 2 μM, flow cytometry (FIG. 26E)) [folds] | regenerated Bone Volume (BV) within Total Volume (TV) of the defect by μCT ([8]; 2 mm defect, 8 week old C57Bl/6 female mice, 8 weeks after surgery, n=3, not statistically significant) | adverse events / general health ([8]; 8 weeks) |
| --- | --- | --- | --- | --- | --- | --- | --- | --- | --- | --- | --- | --- | --- | --- | --- | --- | --- | --- | --- | --- |
| O=C(Nc1ccc([N+](=O)[O-])cc1Cl)c1cc(Cl)ccc1O [Niclosamide] | statistically significant proliferation | statistically significant proliferation | most significant and prolonged effect | able to consistently induce proliferation | could induce proliferation; also recorded: statistically significant proliferation | inhibits their osteoblastic differentiation | statistically significant downregulation | statistically significant downregulation | statistically significant downregulation | proliferation of the PRX1 expressing SSCs was observed; also recorded: statistically significant increase | could not be detected; also recorded: no increase | induces proliferation | induces proliferation | induces proliferation | does not significantly reduce the bone mass | substantial amount of bone regeneration | increase in number | ~3.5 | trend of increasing of the regenerated bone mass | no adverse events were recorded |
| Cc1cc(/C=C/c2ccc3cc(N(C)C)ccc3[n+]2C)c(C)n1-c1ccccc1 [Pyrvinium] | statistically significant proliferation | statistically significant proliferation | – | able to consistently induce proliferation | – | – | – | – | – | – | – | – | – | – | – | – | – | – | – | – |
| O=c1c(O)c(-c2ccc(O)c(O)c2)oc2cc(O)cc(O)c12 [Quercetin] | – | – | – | able to consistently induce proliferation | – | – | – | – | – | – | – | – | – | – | – | – | – | – | – | – |
